Test results from ChEMBL document CHEMBL5053557, “Discovery of Novel Dual-Target Inhibitor of Bromodomain-Containing Protein 4/Casein Kinase 2 Inducing Apoptosis and Autophagy-Associated Cell Death for Triple-Negative Breast Cancer Therapy” (J Med Chem, 2021).
Activity calls are given as the source filed them. The rule behind the calls is not given here.

Experiments:
[1] = molecular target: T1, Bromodomain testis-specific protein (Homo sapiens, UniProt Q58F21); test: Inhibition of BRDT BD1 (unknown origin) incubated for 2 hrs by TR-FRET assay
MDA-MB-231 [2] = test: Induction of apoptosis in human MDA-MB-231 cells assessed as up regulation of cleaved caspase 3 after 24 hrs by Western blot analysis; type: functional, cell-based; details: dose 2.5-10 µM
MDA-MB-231 [3] = test: Induction of apoptosis in human MDA-MB-231 cells assessed as up regulation of Bax after 24 hrs by Western blot analysis; type: functional, cell-based; details: dose 2.5-10 µM
[4] = molecular target: Bromodomain-containing protein 2 (Homo sapiens, UniProt P25440); test: Inhibition of BRD2 BD1 (unknown origin) incubated for 2 hrs by TR-FRET assay
Bromodomain-containing protein 2, sequence (P25440 whole entry): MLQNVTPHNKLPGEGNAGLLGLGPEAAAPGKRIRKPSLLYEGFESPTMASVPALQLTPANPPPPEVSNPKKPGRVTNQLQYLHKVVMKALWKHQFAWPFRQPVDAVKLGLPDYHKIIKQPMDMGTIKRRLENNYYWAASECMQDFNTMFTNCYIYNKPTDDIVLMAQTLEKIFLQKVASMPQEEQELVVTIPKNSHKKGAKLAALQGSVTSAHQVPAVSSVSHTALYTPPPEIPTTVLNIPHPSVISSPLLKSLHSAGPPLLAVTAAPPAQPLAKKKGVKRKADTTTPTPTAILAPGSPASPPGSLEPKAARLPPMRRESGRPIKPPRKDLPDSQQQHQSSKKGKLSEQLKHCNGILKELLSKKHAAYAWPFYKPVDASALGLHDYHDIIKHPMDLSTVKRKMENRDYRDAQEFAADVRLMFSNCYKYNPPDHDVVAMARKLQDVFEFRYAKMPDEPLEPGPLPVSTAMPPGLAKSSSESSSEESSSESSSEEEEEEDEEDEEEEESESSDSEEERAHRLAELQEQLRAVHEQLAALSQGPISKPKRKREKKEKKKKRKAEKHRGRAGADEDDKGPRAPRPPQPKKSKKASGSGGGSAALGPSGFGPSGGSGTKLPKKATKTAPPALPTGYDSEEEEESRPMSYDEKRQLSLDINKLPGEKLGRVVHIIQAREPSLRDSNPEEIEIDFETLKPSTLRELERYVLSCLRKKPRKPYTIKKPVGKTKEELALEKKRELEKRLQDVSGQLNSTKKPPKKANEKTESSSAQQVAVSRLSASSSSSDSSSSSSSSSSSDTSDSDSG

[5] = Cmax in Sprague-Dawley rat at 1 mg/kg, iv by LC-MS analysis; type: ADME, organism-based; design: dose 1 mg/kg, route iv; details: in vivo
Mus musculus [6] = test: Toxicity in nude BALB/c mouse xenografted with human MDA-MB-231 cells assessed as morphological changes in heart at 25 to 50 mg/kg, po administered once daily for 19 days and measured every 3 days by H and E staining based assay; type: organism-based; details: in vivo, 456 h, dose 25-50 mg/kg, time 19 day
[7] = Cmax in Sprague-Dawley rat at 10 mg/kg, po by LC-MS analysis; type: ADME, organism-based; design: dose 10 mg/kg, route po; details: in vivo
[8] = AUC(0 to infinity) in Sprague-Dawley rat at 10 mg/kg, po by LC-MS analysis; type: ADME, organism-based; design: time infinity, dose 10 mg/kg, route po; details: in vivo
Mus musculus [9] = test: Toxicity in nude BALB/c mouse xenografted with human MDA-MB-231 cells assessed as morphological changes in lung at 25 to 50 mg/kg, po administered once daily for 19 days and measured every 3 days by H and E staining based assay; type: organism-based; details: in vivo, 456 h, dose 25-50 mg/kg, time 19 day
Mus musculus [10] = test: Down regulation of phosphorylation of AKT at S129 residue expression in BALB/c SCID mouse xenogrfted with human MDA-MB-231 cells at 25 to 50 mg/kg, po administered once daily for 19 days by immunohistochemistry analysis; type: functional, organism-based; details: dose lower […], dose upper 50.0 mg/kg, time 19.0 day
[11] = molecular target: T2, Bromodomain-containing protein 4 (Homo sapiens, UniProt O60885); test: Inhibition of BRD4 BD1 (unknown origin) incubated for 2 hrs by TR-FRET assay
[12] = Half life in Sprague-Dawley rat at 1 mg/kg, iv by LC-MS analysis; type: ADME, organism-based; details: in vivo
Mus musculus [13] = test: Toxicity in nude BALB/c mouse xenografted with human MDA-MB-468 cells assessed as morphological changes in kidney at 25 to 50 mg/kg, po administered once daily for 19 days and measured every 3 days by H and E staining based assay; type: organism-based; details: in vivo, 456 h, dose 25-50 mg/kg, time 19 day
Mus musculus [14] = test: Toxicity in nude BALB/c mouse xenografted with human MDA-MB-231 cells assessed as morphological changes in liver at 25 to 50 mg/kg, po administered once daily for 19 days and measured every 3 days by H and E staining based assay; type: organism-based; details: in vivo, 456 h, dose 25-50 mg/kg, time 19 day
MDA-MB-468 [15] = test: Induction of autophagy in human MDA-MB-468 cells harboring GFP-mRFP-LC3 assessed as up regulation of LC3II level at 2.5 to 10 uM after 24 hrs by Western blot analysis; type: functional, cell-based; details: dose 2.5-10 µM
[16] = AUC(0 to t) in Sprague-Dawley rat at 1 mg/kg, iv by LC-MS analysis; type: ADME, organism-based; design: dose 1 mg/kg, route iv; details: in vivo
[17] = molecular target: T2, Bromodomain-containing protein 4; test: Inhibition of BRD4 BD1/BD2 (unknown origin) incubated for 2 hrs by TR-FRET assay
MDA-MB-231 [18] = test: Inhibition of colony formation in human MDA-MB-231 cells after 7 days by crystal violet staining based assay; type: functional, cell-based; details: dose 2.5-10 µM, time 7.0 day
[19] = molecular target: T1, Bromodomain testis-specific protein; test: Inhibition of BRDT BD2 (unknown origin) incubated for 2 hrs by TR-FRET assay
Mus musculus [20] = test: Down regulation of c-Myc expression in BALB/c SCID mouse xenogrfted with human MDA-MB-231 cells at 25 to 50 mg/kg, po administered once daily for 19 days by immunohistochemistry analysis; type: functional, organism-based; details: dose lower […], dose upper 50.0 mg/kg, time 19.0 day
Mus musculus [21] = test: Toxicity in nude BALB/c mouse xenografted with human MDA-MB-468 cells assessed as morphological changes in liver at 25 to 50 mg/kg, po administered once daily for 19 days and measured every 3 days by H and E staining based assay; type: organism-based; details: in vivo, 456 h, dose 25-50 mg/kg, time 19 day
MDA-MB-468 [22] = test: Antitumor activity against human MDA-MB-468 cells xenografted in po dosed nude BALB/c mouse assessed as tumor growth inhibition administered once daily for 19 days and measured every 3 days; type: functional, organism-based; details: dose lower […], dose upper 50.0 mg/kg, time 19.0 day
MDA-MB-231 [23] = test: Induction of autophagy in human MDA-MB-231 cells harboring GFP-mRFP-LC3 assessed as autophagic flux at 5 uM after 24 hrs by fluorescence microscopic analysis; type: functional, cell-based
MDA-MB-468 [24] = test: Induction of autophagy in human MDA-MB-468 cells at 5 uM preincubated with 3-MA for 1 hr followed by compound addition and measured after 24 hrs by fluorescence microscopic analysis; type: functional, cell-based
Mus musculus [25] = test: Down regulation of c-Myc expression in BALB/c SCID mouse xenogrfted with human MDA-MB-231 cells at 25 to 50 mg/kg, po administered once daily for 19 days by Western blot analysis; type: functional, organism-based; details: dose lower […], dose upper 50.0 mg/kg, time 19.0 day
MDA-MB-231 [26] = test: Induction of apoptosis in human MDA-MB-231 cells at 5 uM preincubated with 3-MA for 1 hr followed by compound addition and measured after 24 hrs by Annexin V-FITC/propidium iodide staining based flow cytometric analysis; type: functional, cell-based
MDA-MB-231 [27] = test: Antitumor activity against human MDA-MB-231 cells xenografted in po dosed nude BALB/c mouse assessed as tumor growth inhibition administered once daily for 19 days and measured every 3 days; type: functional, organism-based; details: dose lower […], dose upper 50.0 mg/kg, time 19.0 day
MDA-MB-231 [28] = test: Antitumor activity against human MDA-MB-231 cells xenografted in nude BALB/c mouse assessed as tumor growth inhibition at 50 mg/kg, po administered once daily for 19 days and measured every 3 days; type: functional; details: MDA-MB-231, 456 h, time 19 day, read-out: TGI
[29] = molecular target: Bromodomain-containing protein 3 (Homo sapiens, UniProt Q15059); test: Inhibition of BRD3 BD2 (unknown origin) incubated for 2 hrs by TR-FRET assay
Bromodomain-containing protein 3, sequence (Q15059 whole entry): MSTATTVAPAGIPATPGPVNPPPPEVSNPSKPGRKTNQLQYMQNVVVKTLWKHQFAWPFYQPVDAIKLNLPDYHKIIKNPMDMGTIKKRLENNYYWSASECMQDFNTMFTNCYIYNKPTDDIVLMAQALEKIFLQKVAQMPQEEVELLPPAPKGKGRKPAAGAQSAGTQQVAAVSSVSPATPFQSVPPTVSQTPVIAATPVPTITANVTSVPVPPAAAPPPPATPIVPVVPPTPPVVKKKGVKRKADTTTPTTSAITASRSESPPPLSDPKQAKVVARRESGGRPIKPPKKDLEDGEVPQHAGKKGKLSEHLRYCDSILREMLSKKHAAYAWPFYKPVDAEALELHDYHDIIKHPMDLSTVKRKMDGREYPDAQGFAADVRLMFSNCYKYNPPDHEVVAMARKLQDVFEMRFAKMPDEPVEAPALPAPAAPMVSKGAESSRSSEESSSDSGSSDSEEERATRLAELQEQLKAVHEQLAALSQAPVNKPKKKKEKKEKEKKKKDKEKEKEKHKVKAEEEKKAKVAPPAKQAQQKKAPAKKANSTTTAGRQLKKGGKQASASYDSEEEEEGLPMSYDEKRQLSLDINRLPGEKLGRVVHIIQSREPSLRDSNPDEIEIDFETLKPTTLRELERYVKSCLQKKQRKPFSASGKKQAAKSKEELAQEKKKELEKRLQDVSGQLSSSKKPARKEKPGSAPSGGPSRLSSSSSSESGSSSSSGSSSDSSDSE

MDA-MB-468 [30] = test: Induction of apoptosis in human MDA-MB-468 cells at 5 uM preincubated with 3-MA for 1 hr followed by compound addition and measured after 24 hrs by Annexin V-FITC/propidium iodide staining based flow cytometric analysis; type: functional, cell-based
MDA-MB-468 [31] = test: Inhibition of colony formation in human MDA-MB-468 cells at 5 uM after 7 days in presence of 3-MA by crystal violet staining based assay; type: functional, cell-based; details: time 7.0 day
MDA-MB-231 [32] = test: Induction of apoptosis in human MDA-MB-231 cells after 24 hrs by Annexin V-FITC/propidium iodide staining based flow cytometry; type: functional, cell-based; details: dose 2.5-10 µM
[33] = molecular target: T2, Bromodomain-containing protein 4; test: Inhibition of BRD4 BD2 (unknown origin) incubated for 2 hrs by TR-FRET assay
MCF-10A = test: Antiproliferative activity against human MCF-10A cells incubated for 24 hrs by MTT assay; type: cell-based
MDA-MB-468 [34] = test: Induction of apoptosis in human MDA-MB-468 cells after 24 hrs by Hoechst 33258 staining fluorescence microscopic analysis; type: functional, cell-based; details: dose 2.5-10 µM
MDA-MB-468 [35] = test: Induction of apoptosis in human MDA-MB-468 cells after 24 hrs by Annexin V-FITC/propidium iodide staining based flow cytometry; type: functional, cell-based; details: dose 2.5-10 µM
MDA-MB-468 [36] = test: Induction of autophagy in human MDA-MB-468 cells harboring GFP-mRFP-LC3 assessed as down regulation of p62 level at 5 uM after 24 hrs by Western blot analysis; type: functional, cell-based

## COc1cc(OC)c2c(=O)[nH]c(-c3ccc(OCC(=O)Nc4ccc(N5CCN(C)CC5)c(Cl)c4)cc3)nc2c1
[1]
  IC50: > 10000 nM
MDA-MB-231 [2]
  Activity: Dose-dependent effect
MDA-MB-231 [3]
  Activity: Dose-dependent effect
[4]
  IC50: > 10000 nM
[5]
  Cmax: 237 ng/mL
Mus musculus [6]
  Activity: Non-Toxic
[7]
  Cmax: 206 ng/mL
[8]
  AUC(0-inf): 2090 ng·h/mL
Mus musculus [9]
  Activity: Non-Toxic
Mus musculus [10]
  Activity: Active
[11]
  IC50: 193 nM
[12]
  half-life: 4.21 h
Mus musculus [13]
  Activity: Non-Toxic
Mus musculus [14]
  Activity: Non-Toxic
MDA-MB-468 [15]
  Activity: Active
[16]
  AUC(0-t): 579 ng·h/mL
[17]
  IC50: 180 nM
MDA-MB-231 [18]
  inhibition: Dose-dependent effect
[19]
  IC50: > 10000 nM
Mus musculus [20]
  Activity: Active
Mus musculus [21]
  Activity: Non-Toxic
MDA-MB-468 [22]
  Activity: Active
MDA-MB-231 [23]
  Activity: Active
MDA-MB-468 [24]
  Activity: inactive
Mus musculus [25]
  Activity: Active
MDA-MB-231 [26]
  Activity: inactive
MDA-MB-231 [27]
  Activity: Active
MDA-MB-231 [28]
  inhibition in vivo at 50 mg/kg: 63.8%
[29]
  IC50: > 10000 nM
MDA-MB-468 [30]
  Activity: inactive
MDA-MB-468 [31]
  inhibition: inactive
MDA-MB-231 [32]
  Activity: Dose-dependent effect
[33]
  IC50: 98 nM
MCF-10A
  Activity: Non-Toxic
MDA-MB-468 [34]
  Activity: Dose-dependent effect
MDA-MB-468 [35]
  Activity: Dose-dependent effect
MDA-MB-468 [36]
  Activity: Active
